Assay results published in US20220056075A1, “METHOD FOR TREATING OPIOID USE DISORDER” (THE ADMINISTRATORS OF THE TULANE EDUCATIONAL FUND, priority 2019, published 2022).
Where “and” joins values, the source holds several entries; their conditions need not be identical. Equal entries are not always repeated. Entries after “also recorded” stand apart in the source; their conditions may differ.

Assays:
[1] = system: rats trained to discriminate morphine from vehicle; experiment: Drug discrimination (DD), morphine-trained rats; settings: for Maximum % drug-appropriate responding / response rates for food during test sessions: i.v.; for Maximum % drug-appropriate responding: male rats; for Response rate impairment %: highest dose tested (5.6 mg/Kg), percent of vehicle responding; for response rates for food during test sessions: compared to vehicle
Procedure: Drug Discrimination (DD): Rats were food deprived to approximately 85% of the weight of free feeding cohorts to establish operant responding for 45 mg food pellets (Bioserve, Frenchtown, N.J.) in standard operant chambers (MED Associates, St. Albans, Vt.). Rats were fed 10-20 g of standard food after daily DD sessions, and ˜3× the daily amount on weekends to maintain appropriate weight. DD consisted of 3 phases (Krivsky et al., 2006). In phase 1, rats were trained to lever press for food at a fixed ratio (FR) level 1 (i.e., 1 lever press=1 food pellet) using 2 levers with stimulus lights located above each lever and a food hopper between the levers during 120 min sessions. Responding on either lever extinguished the light and delivered a food pellet. […] Once >20 pellets were earned at FR9, sessions were shortened to 20 min and response requirements were set at FR10 and the left or right lever reinforced responding on alternate days. Once >20 pellets were earned on each lever at FR10, rats started phase 2 of DD training.
Only responses on the correct lever were reinforced and responses on the incorrect lever reset the response requirement on the correct lever. Criteria to move to phase 3 were as follows: >20 pellets per session, >90% injection appropriate lever responding, and <9 responses on the incorrect lever before the first food pellet reward.
Two paradigms were utilized to generate substitution curves: cumulative within-session and bolus between-session injections.
During substitution tests, both levers actively delivered food at an FR10 schedule. […] Doses were increased in ¼ log increments, with injections every 20 min followed 15 minutes later by DD sessions lasting 5 min each. […] The advantage of this procedure was that an entire dose-response was generated in one session.
Statistics: PRISM software (GraphPad, San Diego, Calif.) was used for one-way analysis of variance (ANOVA) with Newman-Keuls post-hoc comparisons to compare CPP groups, locomotor effects, hot plate, and DD response rates. Locomotor data recorded during the conditioning sessions were analyzed by 2-way ANOVA (session x drug) and data from the first session were subtracted from the final session to assess locomotor enhancement. Experimenters were blinded to treatment groups.

Male Sprague Dawley rats [2] = experiment: Locomotor sensitization during CPP conditioning sessions; format: in vivo, rat; settings: 1.8, 3.2, 5.6 mg/Kg i.v., 5 daily injections, compared to vehicle
Procedure: (§1) Conditioned Place Preference (CPP) and locomotor activity: Standard CPP chambers (TSE; Chesterfield, Mo.) were used to measure baseline activity and conditioning trials. Baseline activity was measured over 2 days with 4 trials per day (2 in the AM, and 2 in the PM) lasting 20 min each. […] Conditioning trials were conducted for 5 days and tested in an unbiased manner such that drug/environment pairings were counterbalanced for time of drug injection (AM or PM) and compartment (preferred or non-preferred) based on baseline activity. […] This indicates a lack of carry-over effects of drug between sessions. One day following the last conditioning trial, a 20 min test trial was conducted in the same manner as baseline trials in which rats were free to explore both compartments. Change in time spent exploring the drug-paired compartment (test-baseline) was used to indicate preference (or aversion) to the compartment. Approximately 20 min following the final session, rats were perfused and brain samples were taken for immunohistochemical analysis (below). Locomotor activity was assessed by infrared light beams located in the conditioning compartments and the start box. […] Data were recorded in meters and an assessment of locomotor sensitization was made by subtracting the first session from the final session.
(§2) Experimenters were blinded to treatment groups.

Male Sprague Dawley rats [3] = experiment: Conditioned place preference (CPP), 5-day procedure; format: in vivo, rat; settings: 5 days of conditioning
Procedure: as §1, §2

rats = settings: cited from earlier work
Male Sprague-Dawley rats = experiment: Reinstatement of morphine-induced conditioned place preference; settings: priming dose 1.8 mg/Kg, 20 min, vs baseline
Procedure: Male Sprague-Dawley rats were exposed to a conditioned place preference (CPP) apparatus for two sessions to determine baseline (BL) preference for 2 distinct, unbiased chambers. […] The animals then underwent extinction procedures consisting of confinement for 45 min in the previously drug- and vehicle-paired chambers for 7 days.

male and female rats = experiment: Naloxone-induced conditioned place aversion (CPA); format: in vivo, rat; settings: i.v. morphine 5.6 mg/Kg or ZH853 4.2 mg/Kg, naloxone 1 mg/Kg s.c. 4 h later
Procedure: Four hours later they received s.c. naloxone (1 mg/Kg) and were confined to one side of the apparatus (counterbalanced) for 20 min. The following day the animals received vehicle-then-saline rather than drug-then-naloxone. This cycle (drug+4 h+nlx+next day vehicle+saline) was repeated once, and the next day the animals had access to the entire apparatus (Post-cond).
To assess whether ZH853 induces the negative affect typical of opioid withdrawal, the conditioned place aversion (CPA) test was conducted.

[4] = system: dopamine (DA) neurons in the posterior VTA; experiment: VTA dopamine cell soma morphology (TH staining, STEREO INVESTIGATOR); format: in vivo, rat; settings: 5 consecutive daily i.v. injections; morphine effect at 5.6 mg/Kg
Procedure: DA morphology analysis: Fifteen min following the final CPP test session, rats were anesthetized with a mixture of ketamine/xylazine (85/10 mg/Kg, i.p., respectively) and perfused intracardially with 200 mL of 0.1 mol/L phosphate buffered saline (PBS) immediately followed by 300 mL of 4% paraformaldehyde in 0.1 mol/L PBS (pH=7.4). Brains were removed and post-fixed at 4° C. in the same fixative for 18 h. After post-fixation, brains were incubated in 30% sucrose at 4° C. for 2 days and sectioned coronally on a cryostat at 40 μm at the level of the posterior VTA (Spiga et al., 2003; Chu et al., 2008). After 2 consecutive washes in PBS, sections were blocked with 5% normal donkey serum (NDS) for 1 h, and incubated with the primary antibody anti-tyrosine-hydroxylase (anti-TH, 1: 3000 Cell Signaling Technology, Danvers, Mass.) overnight at 4° C. Slices were washed twice in PBS, re-blocked for 1 h, and incubated with the secondary antibody ALEXA594 (Life Technologies, Carlsbad, Calif.), for 2 h. Sections were washed, mounted on slides with PROLONG GOLD (Life Technologies), and stored at 4° C. Posterior VTA sections were verified according to the atlas of Paxinos and Watson (2007). Images of the parabrachial pigmented area (PBP) and the paranigral area (PN) subregions of the posterior VTA were captured in z-stacks (1 μm) with at least 5 tissue slices per rat and 5-6 rats per drug group. STEREO INVESTIGATOR software (MBF Bioscience; Williston, Va.) was used to quantify soma size using the optical fractionator probe to survey a sample of neurons in each z-stack while the nucleator probe was used to measure the cross-sectional area and volume of each cell soma. The optical fractionator probe was used to quantify the number of cells in a particular section of tissue through systematic random sampling. Between 12 and 16 regions were surveyed per z-stack. While the optical fractionator probe utilized stereological techniques to select a random sample to be analyzed, the nucleator probe measured the cross-sectional area of each neuron. Therefore, the simultaneous use of these probes systematically assessed neurons in the PBP and PN regions of the VTA in each subject, and provided morphological data for these cells including surface area (μm^2) and volume (μm^3). Cell somas were eligible to be quantified if they were located within the counting frame and/or if the soma touched either of the nucleator frame's green borders. Neurons were ineligible if located outside the counting frame and/or if their soma touched the frame's red borders. After determining this optimum depth, the center of the soma was located and analyzed by the nucleator probe. To eliminate bias associated with tissue orientation, nucleator rays were randomly arranged between quantifications. […]

male and female mice = format: in vivo, mouse; settings: s.c., compared to vehicle
[5] = cumulative doses producing maximum antinociceptive effects; cited from earlier work
male rats [6] = experiment: Forced abstinence and relapse test (oxycodone seeking); format: in vivo, rat; settings: 8th day of forced abstinence; i.v. pretreatment ZH853 1.8 or 3.2 mg/kg, oxycodone 0.32 mg/kg
Procedure: (§3) Self-administration (SA): Self-administration tests were conducted in standard operant chambers (MED Associates, St. Albans, Vt.). Infusions were delivered through TYGON tubing threaded through metal spring leashes and attached to exterior infusion pumps. 3-hour sessions were conducted Monday-Friday during the dark cycle. At the start of each session, the house light was illuminated, and levers extended. […] For the first 5 sessions, rats were trained to lever press for oxycodone (0.1 mg/kg/infusion) on a FR1 reinforcement schedule. For the following 10 sessions, the dose of oxycodone was decreased to 0.05 mg/kg/infusion to increase lever responding.
Forced abstinence and relapse test: Following acquisition of oxycodone self-administration, rats underwent 7 days of forced abstinence from oxycodone and exposure to the testing environment in their home cages. Animals were then split into treatment groups counterbalanced for total oxycodone intake, average number of infusions obtained in the last 3 sessions, and average number of active lever pressings over the last 3 sessions. On the 8th day of forced abstinence, rats were given an intravenous injection of 1.8 mg/kg ZH853, 3.2 mg/kg ZH853, or vehicle. The relapse test began 30 minutes later.

male rats [7] = experiment: Maintenance of established oxycodone self-administration (substitution); format: in vivo, rat; settings: after acquisition of oxycodone SA; drug continued or substituted, i.v. infusions
Procedure: as §3
Maintenance of established oxycodone self-administration: Following acquisition of oxycodone self-administration, animals were split into treatment groups counterbalanced for total oxycodone intake, average number of infusions obtained in the last 3 sessions, and average number of active lever pressings over the last 3 sessions. Ten maintenance sessions were conducted in the same way as oxycodone acquisition except rats were either maintained on 0.1 mg/kg/infusion oxycodone or had drug availability substituted with equi-antinociceptive 1 mg/kg/infusion ZH853 or vehicle.

DBA mice = experiment: Hot plate antinociception test; format: in vivo, mouse; settings: 40 mg/Kg, s.c.

CN1CC[C@]23c4c5ccc(O)c4O[C@H]2[C@@H](O)C=C[C@H]3[C@H]1C5.O=S(=O)(O)O [Morphine, Morphine sulfate, reference compound]
doses disrupting response rates during test sessions ([1]; bolus injections): ≥ 3.2 mg/kg | Maximum % drug-appropriate responding ([1]; bolus injections made between sessions): 100% | Response rate impairment % ([1]; bolus injections, sulfate): 77% and 77.1% | doses disrupting response rates during test sessions ([1]; cumulative injections): ≥ 5.6 mg/kg | Maximum % drug-appropriate responding ([1]; cumulative injections within a single session): 100% | Response rate impairment % ([1]; cumulative injections, sulfate): 55% and 54.5% | response rates for food during test sessions [1]: reduced response rates compared to vehicle | response rates for food during training ([1]; training doses 3.2 mg/Kg s.c. and 1.8 mg/Kg i.v., compared to saline): modestly impaired | appropriate drug-lever responding ([1]; training, after approximately 20 sessions): > 90% | locomotor sensitization (LS), day 5 minus day 1 (Male Sprague Dawley rats [2]): produced LS at all doses tested | conditioned place preference (CPP) (Male Sprague Dawley rats [3]; 3.2 mg/Kg i.v.): produced conditioned place preference (CPP) effects | conditioned place preference (CPP) (Male Sprague Dawley rats [3]; 1.8 and 5.6 mg/Kg i.v.): did not produce significant CPP | hourly SA intake (rats; 12-hour SA sessions, 1 mg/Kg/infusion): ~3.5 mg/kg/h | reinstatement of morphine CPP after extinction (Male Sprague-Dawley rats): showed reinstatement of CPP | naloxone-induced place aversion (male and female rats): produces aversive behavior | surface area of TH-positive somas in pVTA [4]: reduced | volume of TH-positive somas in pVTA [4]: reduced | tail flick antinociception (male and female mice): increased the latency to tail flick

NC(=O)[C@@H]1CCCCNC(=O)CC[C@@H](NC(=O)[C@@H](N)Cc2ccc(O)cc2)C(=O)N[C@@H](Cc2ccccc2)C(=O)N[C@@H](Cc2ccccc2)C(=O)N1 [ZH831, Tyr-c[D-Glu-Phe-Phe-Lys]-NH2]
Response rate impairment % ([1]; bolus injections): 21% and 21.1% | Response rate impairment % ([1]; cumulative injections): 31% and 30.6% | response rates for food during test sessions [1]: not impaired | reinforcing effects in SA/CPP procedures (rats; rat, in vivo): did not produce reinforcing effects in SA/CPP procedures | motor impairment on the Rotarod [5]: lack of motor impairment

NC(=O)[C@@H]1CCC(=O)NCCCC[C@@H](NC(=O)[C@@H](N)Cc2ccc(O)cc2)C(=O)N[C@@H](Cc2c[nH]c3ccccc23)C(=O)N[C@@H](Cc2ccccc2)C(=O)N1 [ZH850, Tyr-c[D-Lys-Trp-Phe-Glu]-NH2]
Response rate impairment % ([1]; bolus injections): 30% and 30.4% | Response rate impairment % ([1]; cumulative injections): −0.3% | response rates for food during test sessions [1]: impaired response rates only after bolus, but not after cumulative injections; also recorded: reduced response rates compared to vehicle

COc1ccc2c3c1O[C@H]1C(=O)CC[C@@]4(O)[C@@H](C2)N(C)CC[C@]314 [oxycodone, reference compound]
oxycodone-seeking (SA behavior, active lever responding) in 1-hour relapse test (male rats [6]): associated with a relapse to SA behavior | self-administration behavior during maintenance sessions (male rats [7]): the drug-seeking behavior was maintained

COC(=O)/C=C/C(=O)N[C@@H]1CC[C@@]2(O)[C@H]3Cc4ccc(O)c5c4[C@@]2(CCN3CC2CC2)[C@H]1O5 [βFNA, beta-funaltrexamine]
antinociceptive properties alone (DBA mice): no antinociceptive properties alone
